Reference: patent publication EP4559896A1, “PH-SENSITIVE CATIONIC LIPID AND LIPID NANOPARTICLE” (National University Corporation Hokkaido University, priority 2022, dated 2024)

Tests used:
[1] = encapsulation rate of lipid nanoparticles (RiboGreen); type: physicochemical; conditions: Fluc mRNA-loaded lipid nanoparticles, TOT/DSPC/chol/PEG-DMG=65/15/20/1.5 (mol%)
Description: The encapsulation rate of the lipid nanoparticles was determined by measuring the amount of encapsulated nucleic acid (mRNA) using RiboGreen (manufactured by Life Technologies), which is an RNAintercalator. The amount of mRNA was quantified based on a calibration curve prepared from a dilution series solution of mRNA at a known concentration.
Specifically, 10 mM HEPES buffer (pH 7.4), 10 w/v% Triton X-100, and RiboGreen were mixed at 978.8 µL, 20 µL, and 1.25 µL per 10 wells, respectively, to obtain a Triton(+) buffer. A Triton(-) buffer was obtained in replacing Triton X-100 with 10 mM HEPES buffer (pH 7.4). 100 µL/well of the sample was added to a black 96-well plate for fluorescence measurement, and 100 µL/well of Triton(+) buffer or Triton(-) buffer was added. After the plate was gently shaken on a shaking incubator (SI-300, manufactured by AS ONE) (700 rpm, 30 seconds), the fluorescence intensity of each well was measured using a microplate reader (VARIOSKAN LUX, manufactured by Thermo Fisher Scientific) (wavelength Ex/Em=500 nm/525 nm), and the nucleic acid encapsulation rate (%) was calculated.

[2] = tested on: BALB/c mice; assay: Fluc activity in tissues of mice administered with Fluc mRNA-loaded lipid nanoparticles; type: in vivo; conditions: for Fluc activity, predominant organ (liver or spleen): Example 34, TOT-5/DSPC/chol/PEG-DMG=65/X/35-X/1.5 (mol%), i.v. 0.01 mg/kg Fluc mRNA, 6 hours
Description: Lipid nanoparticles were administered to mice by intravenous injection into the tail vein using a 27G needle. Unless otherwise specified, BALB/c mice (4 to 5 weeks old, female) were used.
First, BALB/c mice (female, 4 weeks old) were intravenously injected with lipid nanoparticles encapsulating Fluc mRNA (Fluc mRNA-loaded lipid nanoparticles) at a dose of 0.01 mg mRNA/kg. Six hours after intravenous injection, the mice were euthanized, each tissue was collected, frozen in liquid nitrogen, and stored at -80°C. The tissues were homogenized in passive lysis buffer (manufactured by Promega) using a bead-type cell disruptor (Micro Smash MS-100R, manufactured by TOMY Seiko). Tissue debris was removed by centrifugation, and the supernatant was collected. Fluc activity in the supernatant was measured using the Luciferase Assay System (E1500, manufactured by Promega) according to the manufacturer's protocol. Luminescence was measured using a luminometer (Luminescencer-PSN, manufactured by ATTO). Protein concentration was determined using a commercially available assay kit (BCA Protein Assay Kit, manufactured by Pierce). Fluc activity was expressed as relative light units (RLU) per mg of protein.
Specifically, first, each lipid nanoparticle was intravenously administered into the tail vein of mice in an amount of 0.2 mg/kg of Fluc mRNA, and 6 hours after administration of the lipid nanoparticles, about 50 mg each of the liver, spleen, lung, heart, brain, and muscle was collected and stored frozen. 500 µL of passive lysis buffer (manufactured by Promega) was added to each tube containing the collected organ. The liver was homogenized at 4000 rpm for 20 seconds twice, the spleen, kidney, lung, and heart were homogenized at 5000 rpm for 20 seconds twice, and the muscle was homogenized at 5000 rpm for 20 seconds four times; then, the homogenate was centrifuged at 13000 rpm at 4°C for 10 minutes, and the supernatant was collected as a sample for measurement. The liver and spleen were diluted 100 times with passive lysis buffer. 50 µL of a measurement sample (tissue supernatant) was mixed with 50 µL of luciferase assay buffer of the Luciferase Assay System (E1500, manufactured by Promega) previously added in a test tube by pipetting, and the amount of luminescence was measured with a luminometer. Protein concentration was determined using a commercially available assay kit (BCA Protein Assay Kit, manufactured by Pierce). Fluc activity was expressed as relative light units (RLU) per mg of protein.

[3] = tested on: B cells, T cells, NK cells, dendritic cells, and neutrophils; assay: uptake of DiD-modified lipid nanoparticles by spleen cell types (DiD fluorescence intensity); type: in vivo, mice; conditions: Example 37, TOT-5/DSPC/chol/PEG-DMG=65/X/35-X/1.5 (mol%), 1 hour
Description: First, DiD-modified Fluc mRNA-loaded lipid nanoparticles having a composition of TOT-5/DSPC/chol/PEG-DMG=65/X/35-X/1.5 (mol%) (X=3, 5, 10, 15, or 20) were prepared in the same manner as in Example 34, except that the red fluorescent substance DiD was incorporated at 0.5 mol% for DiD modification. The obtained DiD-modified Fluc mRNA-loaded lipid nanoparticles were intravenously administered into the tail vein of BALB/c mice so that the dose of Fluc mRNA was 0.2 mg/kg, the mice were euthanized 1 hour after administration, and the spleen was collected (N=3). As a control, the spleen was also collected from BALB/c mice not administered with lipid nanoparticles.
The spleen cells were stained to distinguish B cells, T cells, NK cells, dendritic cells, and neutrophils. […] After removing the supernatant, the cells were resuspended with 5 mL of cold HBSS(-) buffer, the number of cells was counted, the suspensions were added to a 1.5 mL tube so that 3×10^6 cells were added, and centrifuged at 4°C and 400×g for 5 minutes. […] 6 µL of propidium iodide solution was added to the sample, each cell group was extracted by each surface antigen, and then DiD fluorescence intensity was measured.
DiD-positive cells (cells emitting DiD fluorescence) are cells that have taken up DiD-modified Fluc mRNA-loaded lipid nanoparticles. […]

[4] = average particle size and polydispersity index by dynamic light scattering; type: physicochemical; conditions: Fluc mRNA-loaded lipid nanoparticles, TOT/DSPC/chol/PEG-DMG=65/15/20/1.5 (mol%)
Description: The average particle size (number average value), ζ-average particle size, and polydispersity index (PdI) of the lipid nanoparticles in PBS(-) (pH 7.4), and the zeta potential in 10 mM HEPES buffer (pH 7.4) were measured using an analyzer "Zetasizer Nano ZS ZEN3600" (manufactured by Malvern) utilizing dynamic light scattering.

[5] = tested on: factor VII (F7); conditions: mouse liver; cited from earlier work
[6] = Example 11, TOT-5/DOPE/chol/PEG-DMG=60/15/25/1, i.v. tail vein
[7] = Example 14, TOT-5/DSPC/chol/PEG-DMG=65/15/20/1, i.v. tail vein
[8] = Example 33, TOT/DSPC/chol/PEG-DMG=65/15/20/1.5, control CL4F6/DSPC/chol/PEG-DMG=50/10/40/1.5 (mol%), i.v. tail vein

In the case of `CCCCCCCC/C=C\CCCCCCCC(=O)OCC(COC(=O)CCCCCCC/C=C\CCCCCCCC)(COC(=O)CCCCCCC/C=C\CCCCCCCC)NC(=O)CCN1CCCCC1` [TOT-5, 2-((oleoyloxy)methyl)-2-(3-(piperidin-1-yl)propanamido)propane-1,3-diyl dioleate], the “Encapsulation Rate” value [1] is reported as 88.6%, the “Fluc activity (RLU/mg protein) in the liver and spleen” value ([2]; Example 11, TOT-5/DOPE/chol/PEG-DMG=50 to 65/10 to 35/0 to 40/1 (mol%), all compositions, i.v. tail vein) is reported as “confirmed” and the “Fluc activity (RLU/mg protein) in the liver” value [2, 6] is reported as “high”. The “Fluc activity (RLU/mg protein) in the spleen” value [2, 6] was “not so high”, the “Fluc activity (RLU/mg protein) in the liver and spleen” value ([2]; Example 13, TOT/DOPE/chol/PEG-DMG=60/15/25/1.0 (mol%), i.v. tail vein) was “very high” and the “Fluc activity (RLU/mg protein) in the liver and spleen” value ([2]; Example 14, TOT-5/DSPC/chol/PEG-DMG=55 to 70/5 to 30/10 to 35/1 (mol%), all compositions, i.v. tail vein) was “confirmed”. The “Fluc activity (RLU/mg protein) in the liver” value ([2]; Example 14, TOT-5/DSPC/chol/PEG-DMG=65/5/30/1, i.v. tail vein) was “very high”, the “Fluc activity (RLU/mg protein) in the liver” value [2, 7] was “not so high” and the “Fluc activity (RLU/mg protein) in the spleen” value [2, 7] was “high”. For the same compound, the “luciferase activity in the spleen compared with control mice (CL4F6-containing lipid nanoparticles)” value [2, 8] was “higher”, the “Fluc activity, predominant organ (liver or spleen)” value ([2]; DSPC content 10 mol% or more) was “predominantly in the spleen” and the “Fluc activity, predominant organ (liver or spleen)” value ([2]; DSPC content less than 10 mol%) was “predominantly in the liver”. For the same compound, the “uptake by spleen cell types (DiD fluorescence intensity)” value ([3]; X=3, 5, 10, 15, or 20, i.v. 0.2 mg/kg Fluc mRNA) was “highly taken up by B cells and dendritic cells”, the “improvement of the uptake by B cells by increasing the DSPC content” value ([3]; X=3 to 20, i.v. 0.2 mg/kg Fluc mRNA) was “about 10 times” and the PdI [4] was 0.161. The “ζ-Average Particle Size” value [4] was 102.1 nm.

In the case of `CCCCC/C=C\C/C=C\CCCCCCCCOC1(OCCCCCCCC/C=C\C/C=C\CCCCC)CCN(C)CC1` [YSK05], the “ED50 in factor VII (F7) knockdown” value [5] is listed as 0.06 mg siRNA/kg.

In the case of `CCCCCCCC/C=C\CCCCCCCC(=O)OCC(COC(=O)CCCCCCC/C=C\CCCCCCCC)(COC(=O)CCCCCCC/C=C\CCCCCCCC)NC(=O)CCN(C)CC` [TOT-16, 2-(3-(ethyl(methyl)amino)propanamido)-2-((oleoyloxy)methyl)propane-1,3-diyl dioleate], the “Encapsulation Rate” value [1] is reported as 87.6%, the “luciferase activity in the heart compared with control mice (CL4F6-containing lipid nanoparticles)” value [2, 8] is reported as “higher” and the “luciferase activity in the muscle compared with control mice (CL4F6-containing lipid nanoparticles)” value [2, 8] is reported as “higher”. For the same compound, the “luciferase activity in the spleen compared with control mice (CL4F6-containing lipid nanoparticles)” value [2, 8] was “higher”, the PdI [4] was 0.180 and the “ζ-Average Particle Size” value [4] was 99.2 nm.

For `CCCCC/C=C\C/C=C\CCCCCCCCC(CCCCCCCC/C=C\C/C=C\CCCCC)OC(=O)CCCN(C)C` [DLin-MC3-DMA], the “ED50 in factor VII (F7) knockdown” value [5] is listed as 0.005 mg siRNA/kg.

With `CCCCCCCC/C=C\CCCCCCCC(=O)OCC(COC(=O)CCCCCCC/C=C\CCCCCCCC)(COC(=O)CCCCCCC/C=C\CCCCCCCC)NC(=O)C1CCN(C)CC1` [TOT-3, 2-(1-methylpiperidine-4-carboxamide)-2-((oleoyloxy)methyl)propane-1,3-diyl dioleate] the “Encapsulation Rate” value [1] was 92.3%, the “luciferase activity in the lung compared with control mice (CL4F6-containing lipid nanoparticles)” value [2, 8] was “higher” and the PdI [4] was 0.344. For the same compound, the “ζ-Average Particle Size” value [4] was 167.2 nm.
